Here are results for eight compounds from US20090163521A1, “Novel Pyrazolopyrimidinone Derivatives” (ORCHID RESEARCH LABORATORIES LIMITED, priority 2005, published 2009).

The target in series [1] is T1, COX-2 (Homo sapiens, UniProt P35354).
T1 construct: Fresh blood was collected in tubes containing sodium heparin by vein puncture from healthy male volunteers; endogenous in cells; host or cells: human whole blood from healthy male volunteers, aspirin-pretreated and LPS-stimulated
T1 sequence (P35354 18-604): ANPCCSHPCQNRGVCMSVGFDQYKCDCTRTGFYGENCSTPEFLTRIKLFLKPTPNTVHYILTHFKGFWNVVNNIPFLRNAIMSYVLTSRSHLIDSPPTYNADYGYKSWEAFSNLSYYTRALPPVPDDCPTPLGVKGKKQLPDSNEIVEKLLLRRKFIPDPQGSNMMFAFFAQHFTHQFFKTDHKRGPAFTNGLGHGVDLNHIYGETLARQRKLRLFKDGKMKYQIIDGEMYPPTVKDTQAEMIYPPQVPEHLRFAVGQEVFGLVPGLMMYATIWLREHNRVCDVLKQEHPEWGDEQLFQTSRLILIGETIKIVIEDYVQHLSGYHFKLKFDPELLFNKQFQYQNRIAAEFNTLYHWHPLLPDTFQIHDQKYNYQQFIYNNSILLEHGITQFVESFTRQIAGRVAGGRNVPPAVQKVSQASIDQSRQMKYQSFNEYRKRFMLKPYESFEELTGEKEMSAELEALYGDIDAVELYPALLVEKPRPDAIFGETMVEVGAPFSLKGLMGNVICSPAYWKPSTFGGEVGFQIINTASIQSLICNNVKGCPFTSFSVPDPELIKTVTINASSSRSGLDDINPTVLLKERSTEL
Nature of the series: Human whole blood assay (LPS-induced PGE2, COX-2 inhibition). It counts as cell-based. As to conditions: LPS stimulated. The procedure:
Human whole blood provides a protein and cell rich milieu appropriate for the study of biochemical efficacy of anti-inflammatory compounds such as selective COX-2 inhibitors. […] This is correlating with the observation that COX-2 inhibitors have no effect on prostaglandin E2 (PGE2) production in normal blood. These inhibitors were active only after incubation of human blood with lipopolysaccharide (LPS), which induces COX-2 production in the blood.
Fresh blood was collected in tubes containing sodium heparin by vein puncture from healthy male volunteers. The subjects should have no apparent inflammatory conditions and not taken NSAIDs for at least 7 days prior to blood collection. Blood was preincubated with aspirin in vitro (12 μg/ml, at time zero) to inactivate COX-1 for 6 hours. Then test compounds (at various concentrations) or vehicle were added to blood. After that blood was stimulated with LPS B:4 (10 μg/ml) and incubated for another 18 h at 37° C. water bath. After which the blood was centrifuged, plasma was separated and stored at −80° C. (J. Pharmacol. Exp. Ther, 271, 1705, 1994; Proc. Natl. Acad. Sci. USA, 96, 7563, 1999). The plasma was assayed for PGE2 using Cayman ELISA kit as per the procedure outlined by the manufacturer (Cayman Chemicals, Ann Arbor, USA).

Series [2] concerns TNF-α. Nature of the series: In vitro measurement of TNF-α in LPS-stimulated human PBMC. As to conditions: LPS 1 μg/ml, 18 h. It counts as cell-based. The procedure:
This assay determines the effect of test compounds on the production of TNF α in human Peripheral Blood Mononuclear Cells (PBMC). Compounds were tested for their ability to inhibit the activity of TNF α in human PBMC. PBMC were isolated from blood (from healthy volunteers) using BD Vacutainer CPT™ (Cell preparation tube, BD Bio Science) and suspended in RPMI medium (Physiol. Res. 52: 593-598, 2003). The test compounds were pre-incubated with PBMC (0.5 million/incubation well) for 15 minutes at 37° C. and then stimulated with Lipopolysaccharide (Escherichia coli: B4; 1 μg/ml) for 18 h at 37° C. in 5% CO2. The levels of TNFα in cell culture medium were estimated using enzyme linked Immunosorbent assay performed in a 96 well format as per the procedure of the manufacturer (Cayman Chemical, Ann Arbor, USA).

The subject of series [3] is IL-6. Nature of the series: In vitro measurement of IL-6 in LPS-stimulated human PBMC. It is filed as cell-based. As to conditions: LPS 1 μg/ml, 18 h. The procedure: This assay determines the effect of test compounds on the production of IL-6 in human PBMC (Physiol. Res. 52: 593-598, 2003). Compounds were tested for their ability to inhibit the activity of IL-6 in human PBMC. PBMC were isolated from blood using BD Vacutainer CPT™ Cell preparation tube (BD Bio Science) and suspended in RPMI medium. The test compounds were pre-incubated with PBMC (0.5 million/incubation well) for 15 minutes at 37° C. and then stimulated with Lipopolysaccharide (Escherichia coli: B4; 1 μg/ml) for 18 h at 37° C. in 5% CO2. The levels of IL-6 in cell culture medium were estimated using enzyme linked Immunosorbent assay performed in a 96 well format as per the procedure of the manufacturer (Cayman Chemical, Ann Arbor, USA).

The test system of series [4] is TNF-α. Nature of the series: LPS induced sepsis for measurement of TNF-α inhibition in mice. As to conditions: oral, serum 90 min after LPS. It counts as in vivo. The procedure: The LPS induced sepsis model in mice was performed as described by Les sekut et al (J Lab Clin Med 1994; 124:813-20). Female Swiss albino mice were selected and the body weights were equivalent within each group. The mice were fasted for 20 hours with free access to water. The mice were dosed orally with the test compound suspended in vehicle containing 0.5% Tween 80 in 0.25% Carboxy-methylcellulose sodium salt. The control mice were administered the vehicle alone. After 30 min of oral dosing, mice were injected with 500 μg of Lipopolysaccharide (Escherichia coli, LPS: B4 from Sigma) in phosphate buffer saline solution into the intraperitoneal cavity of the mice. After 90 min of LPS administration mice were bled via retro-orbital sinus puncture. Blood samples were stored overnight at 4° C. Serum samples were collected by centrifuging the samples at 400 rpm for 15 min at 4° C. Immediately the serum samples were analysed for TNFα levels using commercially available mouse TNF-α ELISA kit (Amersham Biosciences) and assay was performed by the manufacturer instruction.

For series [5], the target named is T2, purified recombinant COX-1 (Ovis aries, UniProt P05979).
T2 sequence (P05979 25-600): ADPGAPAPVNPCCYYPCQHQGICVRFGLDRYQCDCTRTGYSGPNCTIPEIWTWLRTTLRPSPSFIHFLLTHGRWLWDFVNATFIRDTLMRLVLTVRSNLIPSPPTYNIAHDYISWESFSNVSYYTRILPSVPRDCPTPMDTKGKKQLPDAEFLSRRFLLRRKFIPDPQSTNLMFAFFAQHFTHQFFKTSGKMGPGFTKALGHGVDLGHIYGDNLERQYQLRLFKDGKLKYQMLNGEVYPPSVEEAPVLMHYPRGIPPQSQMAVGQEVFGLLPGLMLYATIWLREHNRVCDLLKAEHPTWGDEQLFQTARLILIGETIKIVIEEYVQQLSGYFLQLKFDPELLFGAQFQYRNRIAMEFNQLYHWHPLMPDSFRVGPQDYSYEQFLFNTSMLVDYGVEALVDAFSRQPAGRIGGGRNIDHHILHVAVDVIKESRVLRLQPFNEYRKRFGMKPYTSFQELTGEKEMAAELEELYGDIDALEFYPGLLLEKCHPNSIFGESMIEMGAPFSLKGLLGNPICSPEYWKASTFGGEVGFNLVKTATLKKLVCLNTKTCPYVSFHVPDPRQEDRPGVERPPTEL
Nature of the series: COX-1 enzyme based assay. It counts as biochemical. The procedure: (§1) COX-1 and COX-2 enzyme based assays were carried out to check the inhibitory potential of test compounds on the production of prostaglandin by purified recombinant COX-1/COX-2 enzyme (Proc. Nat. Acad. Sci. USA, 88, 2692-2696, 1991; J. Clin. Immunoassay 15, 116-120, 1992) In this assay, the potential of test compound to inhibit the production of prostaglandin either by COX-1 or COX-2 from arachidonic acid (substrate) was measured. This was an enzyme based in-vitro assay to evaluate selective COX inhibition with good reproducibility.
(§2) Arachidonic acid was converted to PGH2 (Intermediate product) by COX1/COX-2 in presence or absence of the test compound. The reaction was carried out at 37° C. and after 2 minutes it was stopped by adding 1M HCl. Intermediate product PGH2 was converted to a stable prostanoid product PGF2α by SnCl2 reduction. The amount of PGF2α produced in the reaction was inversely proportional to the COX inhibitory potential of the test compound. The prostanoid product was quantified via enzyme immunoassay (EIA) using a broadly specific antibody that binds to all the major forms of prostaglandin, using Cayman ELISA kit as per the procedure outlined by the manufacturer (Cayman Chemicals, Ann Arbor, USA).

Series [6] has as its target T3, purified recombinant COX-2 (Homo sapiens, UniProt P35354).
T3 sequence (P35354 18-604): T1 sequence (P35354 18-604)
Nature of the series: COX-2 enzyme based assay. It counts as biochemical. The procedure: as §1, §2

Compound `CSc1ccc(-c2nc3[nH]nc(N)c3c(=O)n2-c2ccc(C)cc2)cc1` [Example 1, 3-amino-5-(4-methylphenyl)-6-[4-(methylthio)phenyl]-1,5-dihydro-4H-pyrazolo[3,4-d]pyrimidin-4-one] displayed a melting point greater than 285 °C. The same compound registered an inhibition at 0.25 µM in series [1] (0.25 μM) of 20.3%. Further, in series [1] (10 μM), the inhibition at 10 µM was 41.6%.
In series [2], `CSc1ccc(-c2nc3[nH]nc(NC(C)=O)c3c(=O)n2-c2ccc(C)c(C)c2)cc1` [Example 36, N-[5-(3,4-Dimethylphenyl)-4-oxo-6-[(4-methylthio)phenyl]-4,5-dihydro-1H-pyrazolo[3,4-d]pyrimidin-3-yl]acetamide] yielded an inhibition at 10 µM of 29.9%. In series [3], the inhibition at 1 µM was 12.7%.
The matching figures for `CSc1ccc(-c2nc3c(c(N)nn3C)c(=O)n2-c2ccc(C(C)C)cc2)cc1` [Example 22, 3-Amino-5-(4-isopropylphenyl)-1-methyl-6-[4-(methylthio)phenyl]-1,5-dihydro-4H-pyrazolo[3,4-d]pyrimidin-4-one]: 54% and 12%.
In the case of `CCOc1ccc(-n2c(-c3ccc(SC)cc3)nc3c(c(N)nn3C)c2=O)cc1` [Example 21, 3-Amino-5-(4-ethoxyphenyl)-1-methyl-6-[4-(methylthio)phenyl]-1,5-dihydro-4H-pyrazolo[3,4-d]pyrimidin-4-one], in series [2], the inhibition at 10 µM amounted to 75.1%. Besides, the “TNF-α Inhibition (%)” value in series [4] (at 50 mg/kg) is listed as 75.15 (at 50 mg/kg) %.
In turn, `CSc1ccc(-c2nc3c(c(N)nn3C)c(=O)n2-c2ccc(Cl)cc2)cc1` [Example 24, 3-Amino-5-(4-chlorophenyl)-1-methyl-6-[4-(methylthio)phenyl]-1,5-dihydro-4H-pyrazolo[3,4-d]pyrimidin-4-one] returned an inhibition at 10 µM in series [2] of 87.9%. For the same compound, the “TNF-α Inhibition (%)” value in series [4] (at 50 mg/kg) was 91.99 (at 50 mg/kg) %.
For the compound `CSc1ccc(-c2nc3c(c(NC(=O)C(F)(F)F)nn3C)c(=O)n2-c2ccc(C)cc2C)cc1` [Example 40, 2,2,2-trifluoro-N-{5-(2,4-dimethylphenyl)-1-methyl-6-[4-(methylthio)phenyl]-4-oxo-4,5-dihydro-1H-pyrazolo[3,4-d]pyrimidin-3-yl}acetamide], the results for the inhibition at 10 µM in series [5] (Conc. 10 μM), in series [6] (Conc. 10 μM) and in series [2] were 3.11%, 15.5% and 78%, respectively.
For `CSc1ccc(-c2nc3c(c(N)nn3C)c(=O)n2-c2ccc(C)cc2C)cc1` [Example 23, 3-Amino-5-(2,4-dimethylphenyl)-1-methyl-6-[4-(methylthio)phenyl]-1,5-dihydro-4H-pyrazolo[3,4-d]pyrimidin-4-one], in series [5] (Conc. 1 μM), the inhibition at 1 µM amounted to 51.6%. For the same compound, the “COX-2 Inhibition (%)” value in series [6] (Conc. 1 μM) is reported as “Not Active”. Also, 10 µM produced 86.3% inhibition in series [2]. Also, the “TNF-α Inhibition (%)” value in series [4] (at 5 mg/kg) was 92.02 (at 5 mg/kg) %.
In series [2], `CSc1ccc(-c2nc3[nH]nc(N)c3c(=O)n2-c2ccc(Br)cc2)cc1` [Example 19, 3-Amino-5-(4-bromophenyl)-6-[(4-methylthio)phenyl]-1,5-dihydro-4H-pyrazolo[3,4-d]pyrimidin-4-one] displayed an inhibition at 10 µM of 64.8%. This compound also came in with an inhibition at 1 µM in series [3] of 15.9%.

In general, inhibition refers to how much of the control response was suppressed. Usually melting point stands for the temperature of the solid-liquid transition.
